Reference: article PMC7282810, “Existence and functions of a kisspeptin neuropeptide signaling system in a non-chordate deuterostome species” (eLife, 2020)
Entries after “also recorded” stand apart in the source; their conditions may differ. *1 amine or outer side, *2 acyl side, *3 side chain or, on linkers, in order; H or OH if unused. Where a SMILES comes first, the peptide text is derived from it. Bridges are numbered along the chain shown (N, C = ends). Where no end group is shown, it is not given here. [ ]: non-standard residue; d: D form. The star is where a group is joined. Leu(3R-OH,Nα-propionyl) = CCC(=O)N[C@H](C(=O)*)[C@H](O)C(C)C; X1 = CC(C)[C@@H](O[*:3])[C@H](N[*:1])C(=O)[*:2]; NMeT = CN[C@H](C(=O)O)[C@@H](C)O; dPhLac = O=C(O)[C@H](O)Cc1ccccc1; NMeA = CN[C@@H](C)C(=O)O; NMeDha = C=C(NC)C(=O)O

Columns and labels:
AjKissR1 [1] = molecular target: T1, AjKissR1 (Apostichopus japonicus, UniProt A0A5B7LK60); assay: cell-based; type: cell-based; details: for Effect of inhibitor pre-treatment on AjKiss1a/AjKiss1b-elicited Ca2+ mobilization (in words): 100 nM AjKiss1a or AjKiss1b, pre-treated 12 hr PTX 100 ng/mL, or 1 hr FR900359 1.0 μM, U73122 10 μM, BAPTA-AM 100.0 μM, EGTA 5.0 mM; for Potency in triggering intracellular Ca2+ mobilization via AjKissR1 (in words): HEK293, Fura-2/AM, vertebrate kisspeptins and FITC-AjKiss1a at 1.0 μM
T1 sequence (A0A5B7LK60 1-378): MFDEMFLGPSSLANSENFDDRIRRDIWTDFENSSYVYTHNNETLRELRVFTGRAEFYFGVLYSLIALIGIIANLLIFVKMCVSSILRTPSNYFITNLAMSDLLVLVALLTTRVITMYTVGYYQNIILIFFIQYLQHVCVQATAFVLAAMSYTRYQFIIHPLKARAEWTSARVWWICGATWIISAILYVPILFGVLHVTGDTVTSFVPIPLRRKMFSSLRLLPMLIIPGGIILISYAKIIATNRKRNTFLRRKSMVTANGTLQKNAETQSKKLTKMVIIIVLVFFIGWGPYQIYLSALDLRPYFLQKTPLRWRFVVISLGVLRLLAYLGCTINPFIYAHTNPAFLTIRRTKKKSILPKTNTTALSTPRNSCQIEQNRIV
Experimental: (§1) The fluorescent Ca^2+ indicator Fura-2/AM was used to detect intracellular calcium flux ([Li et al., 2010]). Briefly, the HEK293 cells expressing the AjKissR1, AjKissR2 or vertebrate kisspeptin receptor were washed twice with PBS and suspended at 5 × 10^6 cells/mL in Hanks’ balanced salt solution. The cells were then loaded with 3.0 μM Fura-2/AM for 30 min and washed twice in Hanks’ solution. They were then stimulated with the indicated concentrations of different predicted A. japonicus kisspeptins or vertebrate kisspeptins. Finally, intracellular calcium flux was measured for 60 s, by determining the ratio of excitation wavelengths at 340 and 380 nm using a fluorescence spectrometer (Infinite 200 PRO, Tecan, Männedorf, Switzerland). All of the experiments for measuring Ca^2+ mobilization were repeated independently at least three times.

AjKissR2 [2] = molecular target: T2, AjKissR2 (Apostichopus japonicus, UniProt A0A5B7LIE4); assay: cell-based; type: cell-based; details: for Effect of inhibitor pre-treatment on AjKiss1a/AjKiss1b-elicited Ca2+ mobilization (in words): 100 nM AjKiss1a or AjKiss1b, pre-treated 12 hr PTX 100 ng/mL, or 1 hr FR900359 1.0 μM, U73122 10 μM, BAPTA-AM 100.0 μM, EGTA 5.0 mM; for Potency in triggering intracellular Ca2+ mobilization via AjKissR2 (in words): HEK293, Fura-2/AM, vertebrate kisspeptins and FITC-AjKiss1a at 1.0 μM
T2 sequence (A0A5B7LIE4 1-327): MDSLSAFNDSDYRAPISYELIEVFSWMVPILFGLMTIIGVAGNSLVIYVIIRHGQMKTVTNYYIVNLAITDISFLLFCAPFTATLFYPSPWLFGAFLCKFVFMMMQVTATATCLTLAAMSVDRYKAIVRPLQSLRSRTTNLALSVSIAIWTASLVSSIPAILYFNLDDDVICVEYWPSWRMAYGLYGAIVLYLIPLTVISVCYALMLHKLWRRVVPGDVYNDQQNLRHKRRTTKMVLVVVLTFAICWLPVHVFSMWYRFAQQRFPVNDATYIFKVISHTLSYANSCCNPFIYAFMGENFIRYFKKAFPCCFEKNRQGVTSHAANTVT
Experimental: as §1

AjKissR2 [3] = molecular target: T2, AjKissR2; assay: Ligand competition binding assay (FITC-AjKiss1a, FACS), HEK293/AjKissR2; details: 1.0 μM FITC-AjKiss1a, read-out: IC50 (competitive displacement of FITC-AjKiss1a)
Experimental: (§2) A fluorescence-activated cell sorter (FACS) was used to detect the binding ability of kisspeptins with AjKissR1 or AjKissR2. HEK293 cells expressing FLAG–AjKissR1 or FLAG–AjKissR2 were washed with PBS that contained 0.2% bovine serum albumin (FACS buffer). We designed and synthesized an N-terminal FITC-labeled AjKiss1a peptide (see 'Key resources table'). Different kisspeptins were diluted in the FACS buffer to different concentrations, then added to cells that were incubated on ice for 60–90 min. Cells were washed thrice with the FACS buffer and re-suspended in the FACS buffer with 1% paraformaldehyde for 15 min. The binding activity of the indicated kisspeptin peptides with AjKissR1 or AjKissR2 was determined by measuring the fluorescence of FITC and was presented as a percentage of total binding.

AjKissR1 [4] = molecular target: T1, AjKissR1; assay: Ligand competition binding assay (FITC-AjKiss1a, FACS), HEK293/AjKissR1; details: 1.0 μM FITC-AjKiss1a, read-out: IC50 (competitive displacement of FITC-AjKiss1a)
Experimental: as §2

AjKissR1 [5] = molecular target: T1, AjKissR1; assay: ERK1/2 phosphorylation (western blot) in HEK293 cells expressing FLAG-AjKissR1; type: cell-based; details: pre-treated 1 hr, U73122 10 μM, Gö6983 1.0 μM; AjKiss1b-10 1.0 μM
Experimental: (§3) To examine the phosphorylation of ERK, cells that expressed AjKissr1/2 or other GPR54s were incubated for the indicated times with different concentrations of kisspeptins. Subsequently, cells were lysed with lysis buffer (Beyotime) that contained protease inhibitor (Roche) at 4°C for 30 min on a rocker and then scraped. Proteins were then electrophoresed on a 10% SDS polyacrylamide gel and transferred to polyvinylidene difluoride (PVDF) membranes. Membranes were blocked with 5% skimmed milk, then probed with rabbit anti-phospho-ERK1/2(Thr^202/Tyr^204) antibody (1:2000; Cell Signaling Technology), followed by detection using HRP-conjugated goat anti-rabbit IgG (Beyotime). Blots were stripped and reprobed using anti-ERK1/2 antibody (1:2000; Cell Signaling Technology) as a control for protein loading.
(§4) Immunoreactive bands were detected with an enhanced chemiluminescent substrate (Beyotime), and the membrane was scanned using a Tanon 5200 Chemiluminescent Imaging System (Tanon Science and Technology, Shanghai, China).

AjKissR2 [6] = molecular target: T2, AjKissR2; assay: ERK1/2 phosphorylation (western blot) in HEK293 cells expressing FLAG-AjKissR2; type: cell-based; details: pre-treated 1 hr, U73122 10 μM, Gö6983 1.0 μM; AjKiss1b-10 1.0 μM
Experimental: as §3, §4

Compound	Effect of inhibitor pre-treatment on AjKiss1a/AjKiss1b-elicited Ca2+ mobilization (in words) (AjKissR1 [1])	Effect of inhibitor pre-treatment on AjKiss1a/AjKiss1b-elicited Ca2+ mobilization (in words) (AjKissR2 [2])	Potency in triggering intracellular Ca2+ mobilization via AjKissR1 (in words) (AjKissR1 [1])	Potency in triggering intracellular Ca2+ mobilization via AjKissR2 (in words) (AjKissR2 [2])	other results
O=C(O)CN(CCOCCOCCN(CC(=O)O)CC(=O)O)CC(=O)O [EGTA, reference compound]	significantly attenuated	significantly attenuated	–	–	–
GRQPNRNAHYRTLPF-NH2 [AjKiss1a-15, truncated peptide of AjKiss1a]	–	–	failed to activate	failed to activate	–
C=C1C(=O)N[C@@H](C)C(=O)N(C)[C@@H](C)C(=O)N[C@@H]([C@H](OC(=O)[C@@H](NC(=O)CC)[C@H](O)C(C)C)C(C)C)C(=O)N(C)[C@@H]([C@@H](C)OC)C(=O)O[C@H](C(C)C)[C@H](NC(C)=O)C(=O)O[C@H](Cc2ccccc2)C(=O)N1C [FR900359, reference compound] (Ac-[X1][dPhLac][NMeDha]A[NMeA][X1](Leu(3R-OH,Nα-propionyl))[NMeT](Me); ester 1-C)	completely blocked	completely blocked	–	–	–
YNWNSFGLRF-NH2 [HsKiss1-10, synthetic human kisspeptin decapeptide, reference compound]	–	–	higher potency; also recorded: potent	potent	–
HsNPS: human neuropeptide S, as a negative control (SFRNGVGTGMKKTSFQRAKS) [reference compound]	–	–	no potency	no potency	–
SAVKNKNKSRARPPLLPF-NH2 [AjKiss1b]	–	–	–	–	EC50 (AjKissR1 [1]): 8.06 nM; EC50 (AjKissR2 [2]): 33.2 nM; IC50 (AjKissR2 [3]): 1250 nM; IC50 (AjKissR1 [4]): 353 nM
COc1ccc2c(c1)c(C1=C(c3c[nH]c4ccccc34)C(=O)NC1=O)cn2CCCN(C)C [Gö6983]	–	–	–	–	Effect of inhibitor on AjKiss1b-10-activated ERK1/2 phosphorylation (in words) (AjKissR1 [5]): significantly blocked; Effect of inhibitor on AjKiss1b-10-activated ERK1/2 phosphorylation (in words) (AjKissR2 [6]): significantly blocked
COc1ccc2c(c1)CC[C@@H]1[C@@H]2CC[C@]2(C)[C@@H](NCCCCCCN3C(=O)C=CC3=O)CC[C@@H]12 [U73122, reference compound]	significantly attenuated	significantly attenuated	–	–	Effect of inhibitor on AjKiss1b-10-activated ERK1/2 phosphorylation (in words) (AjKissR1 [5]): significantly blocked; Effect of inhibitor on AjKiss1b-10-activated ERK1/2 phosphorylation (in words) (AjKissR2 [6]): significantly blocked
